# Measurements reported in ChEMBL document CHEMBL4673226, “Development of 5-Aminopyrazole-4-carboxamide-based Bumped-Kinase Inhibitors for Cryptosporidiosis Therapy” (J Med Chem, 2019).
# Experiments:
# [1] = test system: Cryptosporidium parvum; test: Antimicrobial activity against nano-luciferase-expressing Cryptosporidium parvum infected in IFN-gamma KO B6.129S7-Ifngtm1Ts/J mouse assessed as log reduction of infection at 60 mg/kg, po QD for 5 days beginning on day 6 post infection relative untreated control; conditions: time 5 day
# [2] = Drug level in mouse fecus at 25 mg/kg, po; conditions: read-out: Drug uptake, in vivo
# [3] = Clearance in mouse at 25 mg/kg, po; format: ADME, organism-based; conditions: in vivo
# [4] = AUC in mouse at 25 mg/kg, po; format: ADME, organism-based; design: dose 25 mg/kg; conditions: in vivo
# [5] = Protein binding in human plasma by dialysis method
# [6] = Solubility in pH 2.0 solution; conditions: buffer
# [7] = Solubility in pH 6.5 solution; conditions: buffer
# [8] = Protein binding in mouse plasma by dialysis method
# [9] = test system: HepG2; test: Toxicity in human HepG2 cells; format: cell-based
# [10] = Toxicity in human CRL-8155 cells; format: cell-based
# [11] = Inhibition of Cryptosporidium parvum CDPK1 assessed as reduction in ATP consumption using BioSyntide-2 substrate incubated for 90 mins by luciferase reporter gene assay
# [12] = molecular target: Proto-oncogene tyrosine-protein kinase Src (Homo sapiens, UniProt P12931); test: Inhibition of SRC (unknown origin); format: ADME
# Proto-oncogene tyrosine-protein kinase Src, sequence (P12931 2-536 limits assumed): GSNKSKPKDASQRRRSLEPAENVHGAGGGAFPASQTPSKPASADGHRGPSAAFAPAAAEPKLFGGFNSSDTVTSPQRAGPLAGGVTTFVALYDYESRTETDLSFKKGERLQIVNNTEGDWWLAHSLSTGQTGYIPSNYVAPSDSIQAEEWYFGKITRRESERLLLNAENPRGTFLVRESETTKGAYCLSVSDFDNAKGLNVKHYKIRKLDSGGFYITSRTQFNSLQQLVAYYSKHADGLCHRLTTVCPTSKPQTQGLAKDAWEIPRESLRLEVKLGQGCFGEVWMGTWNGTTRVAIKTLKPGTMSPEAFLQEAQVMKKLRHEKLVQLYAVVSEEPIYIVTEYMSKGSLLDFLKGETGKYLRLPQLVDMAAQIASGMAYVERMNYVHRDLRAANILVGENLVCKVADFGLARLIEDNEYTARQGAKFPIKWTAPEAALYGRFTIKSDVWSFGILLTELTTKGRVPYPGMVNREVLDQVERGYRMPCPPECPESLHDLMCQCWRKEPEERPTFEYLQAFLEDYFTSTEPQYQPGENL
Compound,FC [1],concentration [2] [µM],CL/F [3] [mL/min],AUC [4] [µmol·min/L],PPB [5] [%],solubility [6] [µM],solubility [7] [µM],PPB [8] [%],Activity [9],Activity [10],IC50 [11] [nM],IC50 [12] [nM]
CC(CCO)n1nc(-c2ccc3cc(OC4CC4)ccc3c2)c(C(N)=O)c1N (stereo unspecified),4.78,10.3,0.3,4332.8,95,> 100,> 100,95,Non-Toxic,Non-Toxic,6,> 10000
CCOc1ccc2cc(-c3nn(C(C)(C)CCO)c(N)c3C(N)=O)ccc2n1,,,,,,,,,Non-Toxic,Non-Toxic,,
C#CCOc1ccc2cc(-c3nn(C(C)(C)C)c(N)c3C(N)=O)ccc2c1,,,,,,,,,Non-Toxic,Non-Toxic,,
CC(C)(CO)n1nc(-c2ccc3nc(OC4CC4)ccc3c2)c(C(N)=O)c1N,,,,,,,,,Non-Toxic,Non-Toxic,,
CC(C)(CO)n1nc(-c2cnc3cc(OC4CC4)ccc3c2)c(C(N)=O)c1N,,,,,,89,44.2,,Non-Toxic,Non-Toxic,1.9,> 10000
CCOc1ccc2cc(-c3nn(CC(C)(C)CO)c(N)c3C(N)=O)ccc2c1,-0.03,7.6,2.1,621.1,94,> 100,20.6,92,Non-Toxic,Non-Toxic,6.6,6300
CC(C)(CO)Cn1nc(-c2ccc3nc(OC4CC4)ccc3c2)c(C(N)=O)c1N,,,,,,,,,Non-Toxic,Non-Toxic,,
CCOc1ccc2cc(-c3nn(C(C)(C)CCO)c(N)c3C(N)=O)cnc2c1,,,,,,87.9,> 100,,Non-Toxic,Non-Toxic,5.7,2500
CCOc1ccc2cc(-c3nn(C(C)(C)CO)c(N)c3C(N)=O)cnc2c1,,2.9,1,50798.1,,> 50,> 50,,Non-Toxic,Non-Toxic,4.1,4700
CCOc1ccc2cc(-c3nn(C(C)CCO)c(N)c3C(N)=O)ccc2n1 (stereo unspecified),,,,,,,,,Non-Toxic,Non-Toxic,,
CC(C)(CO)Cn1nc(-c2cnc3cc(OC4CC4)ccc3c2)c(C(N)=O)c1N,,,,,,> 100,> 100,,Non-Toxic,Non-Toxic,0.1,> 10000
CCOc1ccc2cc(-c3nn(CC(C)(C)CO)c(N)c3C(N)=O)cnc2c1,,,,,,,> 100,,Non-Toxic,Non-Toxic,,> 10000
CC(C)(CO)n1nc(-c2ccc3cc(OC4CC4)ccc3c2)c(C(N)=O)c1N,4.47,3.5,0.3,41782,,89,92.9,80,Non-Toxic,Non-Toxic,6.9,> 10000
CC(C)(CCO)n1nc(-c2cnc3cc(OC4CC4)ccc3c2)c(C(N)=O)c1N,,,,,,88.8,,,Non-Toxic,Non-Toxic,3,> 10000
CC(C)(CCO)n1nc(-c2ccc3cc(OC4CC4)ccc3c2)c(C(N)=O)c1N,,,1,483.2,,> 100,,,Non-Toxic,Non-Toxic,3.8,> 10000
CC(C)(CCO)n1nc(-c2ccc3nc(OC4CC4)ccc3c2)c(C(N)=O)c1N,,,6.7,193.6,,96,> 100,,Non-Toxic,Non-Toxic,2.3,> 10000
